From patent US11673890B2, “N1-pyrazolospiroketone acetyl-CoA carboxylase inhibitors” (Pfizer Inc., priority 2010, dated 2023) come the findings set out here.

Where two headings read alike, the source gives them in different places.

Assay [1] deals with T1, recombinant human ACC1 (rhACC1) (Homo sapiens, UniProt Q13085, DEL44-44).
T1 construct: infected with recombinant baculovirus containing full length human ACC1 cDNA; made in house; host or cells: SF9 insect cells (baculovirus)
In words: recombinant hACC1 Transcreener assay (ADP detection FP). The format is biochemical. As to the method: For example direct inhibition of ACC activity, for the compound of Formula (1) was determined using preparations of recombinant human ACC1 (rhACC1) and recombinant human ACC2 (rhACC2).
[1] Preparation of rhACC1. Two liters of SF9 cells, infected with recombinant baculovirus containing full length human ACC1 cDNA, were suspended in ice-cold lysis buffer (25 mM Tris, pH 7.5; 150 mM NaCl; 10% glycerol; 5 mM imidazole (EMD Bioscience; Gibbstown, N.J.); 2 mM TCEP (BioVectra; Charlottetown, Canada); Benzonase nuclease (10000 U/100 g cell paste; Novagen; Madison, Wis.); EDTA-free protease inhibitor cocktail (1 tab/50 mL; Roche Diagnostics; Mannheim, Germany). Cells were lysed by 3 cycles of freeze-thaw and centrifuged at 40,000×g for 40 minutes (4° C.). Supernatant was directly loaded onto a HisTrap FF crude column (GE Healthcare; Piscataway, N.J.) and eluted with an imidazole gradient up to 0.5 M over 20 column volumes (CV). ACC1-containing fractions were pooled and diluted 1:5 with 25 mM Tris, pH 7.5, 2 mM TCEP, 10% glycerol and direct loaded onto a CaptoQ (GE Healthcare) column and eluted with an NaCl gradient up to 1 M over 20 CV's. Phosphate groups were removed from purified ACC1 by incubation with lambda phosphatase (100 U/10 μM target protein; New England Biolabs; Beverly, Mass.) for 14 hours at 4° C.; okadaic acid was added (1 μM final concentration; Roche Diagnostics) to inhibit the phosphatase. Purified ACC1 was exchanged into 25 mM Tris, pH 7.5, 2 mM TCEP, 10% glycerol, 0.5 M NaCl by 6 hour dialysis at 4° C. Aliquots were prepared and frozen at −80° C.
[2] […] The final conditions for the assay were 50 mM HEPES, pH 7.2, 10 mM MgCl2, 7.5 mM tripotassium citrate, 2 mM DTT, 0.1 mg/mL BSA, 30 μM acetyl-CoA, 50 μM ATP, and 10 mM KHCO3. Typically, a 10 μl reaction was run for 120 min at 25° C., and 10 μl of Transcreener stop and detect buffer was added and the combination incubated at room temp for an additional 1 hour.
All of the examples in both assays were run with a minimum of n=3.

The target of assay [2] is T2, recombinant human ACC2 (rhACC2) (Homo sapiens, UniProt O00763, V2141I).
T2 construct: a full length Cytomax clone of ACC2 was purchased from Cambridge Bioscience Limited; made in house; host or cells: CHO cells (tetracycline-inducible, pcDNA5 FRT TO-TOPO)
Put plainly: recombinant hACC2 Transcreener assay (ADP detection FP). It is filed as biochemical. The note with it: 50 μM ATP, minimum of n=3. As to the method: For example direct inhibition of ACC activity, for the compound of Formula (1) was determined using preparations of recombinant human ACC1 (rhACC1) and recombinant human ACC2 (rhACC2). Representative sequences of the recombinant human ACC1 and ACC2 that can be used in the assay are provided in FIG. 1 (SEQ ID NO. 1) and FIG. 2 (SEQ. ID NO. 2), respectively.
[3] Preparation of rhACC2. Human ACC2 inhibition was measured using purified recombinant human ACC2 (hrACC2). Briefly, a full length Cytomax clone of ACC2 was purchased from Cambridge Bioscience Limited and was sequenced and subcloned into PCDNA5 FRT TO-TOPO (Invitrogen, Carlsbad, Calif.). The ACC2 was expressed in CHO cells by tetracycline induction and harvested in 5 liters of DMEM/F12 with glutamine, biotin, hygromycin and blasticidin with 1 μg/mL tetracycline (Invitrogen, Carlsbad, Calif.). The conditioned medium containing ACC2 was then applied to a Softlink Soft Release Avidin column (Promega, Madison, Wis.) and eluted with 5 mM biotin. 4 mgs of ACC2 were eluted at a concentration of 0.05 mg/mL (determined by A280) with an estimated purity of 95% ([…]). The purified ACC2 was dialyzed in 50 mM Tris, 200 mM NaCl, 4 mM DTT, 2 mM EDTA, and 5% glycerol. The pooled protein was frozen and stored at −80° C., with no loss of activity upon thawing. For measurement of ACC2 activity and assessment of ACC2 inhibition, test compounds were dissolved in DMSO and added to the rhACC2 enzyme as a 5× stock with a final DMSO concentration of 1%.
[4] Measurement of human ACC2 inhibition. hACC2 was assayed in a Costar #3676 (Costar, Cambridge, Mass.) 384-well plate using the Transcreener ADP detection FP assay kit (Bellbrook Labs, Madison, Wis.) using the manufacturer's recommended conditions for a 50 uM ATP reaction. The final conditions for the assay were 50 mM HEPES, pH 7.2, 5 mM MgCl2, 5 mM tripotassium citrate, 2 mM DTT, 0.1 mg/mL BSA, 30 μM acetyl-CoA, 50 μM ATP, and 8 mM KHCO3. Typically, a 10 μl reaction was run for 50 min at 25° C., and 10 μl of Transcreener stop and detect buffer was added and the combination incubated at room temp for an additional 1 hour. The data was acquired on an Envision Fluorescence reader (Perkinelmer) using a 620 excitation Cy5 FP general dual mirror, 620 excitation Cy5 FP filter, 688 emission (S) and a 688 (P) emission filter.
The results using the recombinant hACC1 and recombinant hACC2 Transcreener assays described above are summarized in the table below for the Compounds of Formula (I) exemplified in the Examples above. All of the examples in both assays were run with a minimum of n=3.

Setting [3] is: recombinant hACC1 Transcreener assay, 50 μM ATP, minimum of n=3, read-out: hACC1.

T2 sequence (O00763 whole entry V2141I): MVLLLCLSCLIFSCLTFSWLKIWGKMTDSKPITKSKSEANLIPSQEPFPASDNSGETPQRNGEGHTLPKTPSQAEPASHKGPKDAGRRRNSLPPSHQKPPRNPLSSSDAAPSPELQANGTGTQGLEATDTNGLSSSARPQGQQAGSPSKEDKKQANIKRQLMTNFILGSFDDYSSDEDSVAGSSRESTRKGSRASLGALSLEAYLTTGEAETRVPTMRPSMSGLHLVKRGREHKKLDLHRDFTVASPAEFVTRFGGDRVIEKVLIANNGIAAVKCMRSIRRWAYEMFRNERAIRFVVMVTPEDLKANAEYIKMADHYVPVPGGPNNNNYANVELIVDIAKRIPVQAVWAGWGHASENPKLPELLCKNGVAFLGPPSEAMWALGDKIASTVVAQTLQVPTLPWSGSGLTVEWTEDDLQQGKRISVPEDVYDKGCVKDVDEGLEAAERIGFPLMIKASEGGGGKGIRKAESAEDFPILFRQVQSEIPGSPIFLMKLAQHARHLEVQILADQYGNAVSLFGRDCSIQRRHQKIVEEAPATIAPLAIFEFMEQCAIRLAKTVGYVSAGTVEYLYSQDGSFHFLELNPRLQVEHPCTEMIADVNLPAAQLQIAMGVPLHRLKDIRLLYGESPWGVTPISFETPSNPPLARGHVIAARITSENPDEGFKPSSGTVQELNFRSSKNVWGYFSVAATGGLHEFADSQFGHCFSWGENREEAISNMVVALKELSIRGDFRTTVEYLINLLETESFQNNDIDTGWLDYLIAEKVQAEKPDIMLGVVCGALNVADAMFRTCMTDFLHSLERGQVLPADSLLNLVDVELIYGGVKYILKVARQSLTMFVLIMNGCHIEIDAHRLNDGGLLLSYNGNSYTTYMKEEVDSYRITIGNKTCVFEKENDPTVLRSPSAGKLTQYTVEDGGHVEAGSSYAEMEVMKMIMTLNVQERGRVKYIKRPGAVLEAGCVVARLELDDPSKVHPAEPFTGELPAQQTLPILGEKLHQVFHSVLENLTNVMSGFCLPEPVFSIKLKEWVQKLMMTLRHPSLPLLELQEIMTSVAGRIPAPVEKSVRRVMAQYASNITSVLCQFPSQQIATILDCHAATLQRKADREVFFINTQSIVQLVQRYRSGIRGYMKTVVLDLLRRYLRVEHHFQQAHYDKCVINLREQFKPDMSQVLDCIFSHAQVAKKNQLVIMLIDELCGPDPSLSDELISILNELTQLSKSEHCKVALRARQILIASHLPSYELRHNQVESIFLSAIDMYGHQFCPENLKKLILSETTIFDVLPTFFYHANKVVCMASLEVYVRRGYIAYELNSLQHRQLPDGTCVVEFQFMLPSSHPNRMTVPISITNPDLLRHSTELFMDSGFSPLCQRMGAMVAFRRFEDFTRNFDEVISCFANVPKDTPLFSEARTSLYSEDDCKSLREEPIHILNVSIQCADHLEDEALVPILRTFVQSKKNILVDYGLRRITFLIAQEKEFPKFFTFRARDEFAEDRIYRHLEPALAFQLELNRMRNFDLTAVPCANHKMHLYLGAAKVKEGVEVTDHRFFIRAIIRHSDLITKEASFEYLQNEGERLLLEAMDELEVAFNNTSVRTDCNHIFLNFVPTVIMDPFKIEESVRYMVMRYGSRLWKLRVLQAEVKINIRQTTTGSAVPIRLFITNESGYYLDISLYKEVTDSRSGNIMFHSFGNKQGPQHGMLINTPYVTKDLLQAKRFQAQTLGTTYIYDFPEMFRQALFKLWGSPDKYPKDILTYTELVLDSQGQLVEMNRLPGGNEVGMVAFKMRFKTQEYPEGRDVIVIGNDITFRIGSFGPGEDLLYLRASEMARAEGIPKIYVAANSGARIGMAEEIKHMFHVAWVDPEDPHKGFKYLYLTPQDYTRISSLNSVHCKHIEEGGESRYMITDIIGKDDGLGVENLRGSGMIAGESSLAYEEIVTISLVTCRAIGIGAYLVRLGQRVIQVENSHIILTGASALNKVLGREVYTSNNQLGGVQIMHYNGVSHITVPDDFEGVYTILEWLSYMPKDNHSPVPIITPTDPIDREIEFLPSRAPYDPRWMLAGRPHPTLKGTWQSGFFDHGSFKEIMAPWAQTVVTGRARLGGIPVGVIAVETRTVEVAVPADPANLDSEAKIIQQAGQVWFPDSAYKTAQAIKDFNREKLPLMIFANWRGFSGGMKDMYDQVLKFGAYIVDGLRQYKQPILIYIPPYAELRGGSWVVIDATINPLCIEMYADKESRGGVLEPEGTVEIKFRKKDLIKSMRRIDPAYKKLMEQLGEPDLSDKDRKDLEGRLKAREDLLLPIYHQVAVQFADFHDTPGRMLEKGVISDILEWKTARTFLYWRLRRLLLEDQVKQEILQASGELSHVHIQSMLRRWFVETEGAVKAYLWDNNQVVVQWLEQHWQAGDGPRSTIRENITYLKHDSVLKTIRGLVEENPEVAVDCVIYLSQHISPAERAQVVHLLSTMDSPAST

For the compound `CC(C)n1ncc2c1C(=O)CC1(CCN(C(=O)c3nc4cc(-c5cccc(C(=O)O)c5)ccc4[nH]3)CC1)C2` [Example 47, 3-{2-[(1-isopropyl-7-oxo-1,4,6,7-tetrahydro-1′H-spiro[indazole-5,4′-piperidin]-1′-yl)carbonyl]-1H-benzimidazol-5-yl}benzoic acid], the IC50 in assay [1] (setting [3]) stood at 32.5 nM; in assay [2], 25.7 nM.
For `CC(C)n1ncc2c1C(=O)CC1(CCN(C(=O)c3ccc(-c4cccc(C(=O)O)c4)cc3)CC1)C2` [Example 7, 4′-[(1-isopropyl-7-oxo-1,4,6,7-tetrahydro-1′H-spiro[indazole-5,4′-piperidin]-1′-yl)carbonyl]biphenyl-3-carboxylic acid], in that order: 113 nM and 74.2 nM.
The like results for `CC(C)n1ncc2c1C(=O)CC1(CCN(C(=O)c3cc4c(-c5ccc(C(=O)O)cc5)ccnc4[nH]3)CC1)C2` [Example 29, 4-{2-[(1-isopropyl-7-oxo-1,4,6,7-tetrahydro-1′H-spiro[indazole-5,4′-piperidin]-1′-yl)carbonyl]-1H-pyrrolo[2,3-b]pyridin-4-yl}benzoic acid] were, in that order, 13.7 nM and 6.16 nM.
The like results for `CC(C)(C)n1ncc2c1C(=O)CC1(CCN(C(=O)c3ccc(-c4cccc(C(=O)O)c4)cc3)CC1)C2` [Example 6, 4′-[(1-tert-butyl-7-oxo-1,4,6,7-tetrahydro-1′H-spiro[indazole-5,4′-piperidin]-1′-yl)carbonyl]biphenyl-3-carboxylicacid] were, in that order, 260 nM and 115 nM.
Turning to “4-{6-(ethylamino)-5-[(1-isopropyl-7-oxo-1,4,6,7-tetrahydro-1′H-spiro[indazole-5,4′-piperidin]-1′-yl)carbonyl]pyridin-2-yl}benzoic acid [Example 14]”, the figures for the IC50 in assay [1] (setting [3]) and in assay [2] were 139 nM and 76.1 nM, respectively.
The like results for `COc1cc(C(=O)N2CCC3(CC2)CC(=O)c2c(cnn2C(C)C)C3)cc(-c2cccc(C(=O)O)c2)n1` [Example 2, 3-(4-(1-Isopropyl-7-oxo-1,4,6,7-tetrahydrospiro[indazole-5,4′-piperidine]-1′-ylcarbonyl)-6-methoxypyridin-2-yl)benzoic acid] were, in that order, 59.6 nM and 84.1 nM.
The like results for `CC(C)(C)n1ncc2c1C(=O)CC1(CCN(C(=O)c3cc4c(-c5cccc(C(=O)O)c5)cccc4[nH]3)CC1)C2` [Example 17, 3-{2-[(1-tert-butyl-7-oxo-1,4,6,7-tetrahydro-1′H-spiro[indazole-5,4′-piperidin]-1′-yl)carbonyl]-1H-indol-4-yl}benzoic acid] were, in that order, 15.6 nM and 21.6 nM.
For `COc1ccc(-c2cccc3[nH]c(C(=O)N4CCC5(CC4)CC(=O)c4c(cnn4C(C)C)C5)cc23)cc1CC(=O)O` [Example 31, (5-{2-[(1-isopropyl-7-oxo-1,4,6,7-tetrahydro-1′H-spiro[indazole-5,4′-piperidin]-1′-yl)carbonyl]-1H-indol-4-yl}-2-methoxyphenyl)acetic acid], in that order: 23.1 nM and 54.8 nM.
In the case of `CC(C)n1ncc2c1C(=O)CC1(CCN(C(=O)c3cc4c(-c5cccc(C(=O)O)c5)ncnc4[nH]3)CC1)C2` [Example 36, 3-{6-[(1-isopropyl-7-oxo-1,4,6,7-tetrahydro-1′H-spiro[indazole-5,4′-piperidin]-1′-yl)carbonyl]-7H-pyrrolo[2,3-d]pyrimidin-4-yl}benzoic acid], the IC50 in assay [1] (setting [3]) was found to be 44.4 nM; in assay [2], 29.3 nM.
For `CNc1nc(-c2ccc(C(=O)O)cc2)ccc1C(=O)N1CCC2(CC1)CC(=O)c1c(cnn1C(C)C)C2` [Example 8, 4-{5-[(1-isopropyl-7-oxo-1,4,6,7-tetrahydro-1′H-spiro[indazole-5,4′-piperidin]-1′-yl)carbonyl]-6-(methylamino)pyridin-2-yl}benzoic acid], in that order: 156 nM and 175 nM.
For `CCNc1nc(-c2cccc(C(=O)O)c2)ccc1C(=O)N1CCC2(CC1)CC(=O)c1c(cnn1C(C)(C)C)C2` [Example 19, 3-{5-[(1-tert-butyl-7-oxo-1,4,6,7-tetrahydro-1′H-spiro[indazole-5,4′-piperidin]-1′-yl)carbonyl]-6-(ethylamino)pyridin-2-yl}benzoic acid], in that order: 837 nM and 487 nM.
As for `COc1cc(C(=O)N2CCC3(CC2)CC(=O)c2c(cnn2C(C)C)C3)cc(-c2ccc(C(=O)O)cc2)n1` [Example 9, 4-{4-[(1-isopropyl-7-oxo-1,4,6,7-tetrahydro-1′H-spiro[indazole-5,4′-piperidin]-1′-yl)carbonyl]-6-methoxypyridin-2-yl}benzoic acid], the IC50 in assay [1] came out at 30.9 nM; in assay [2] it was 29.7 nM.
Turning to `CC(C)n1ncc2c1C(=O)CC1(CCN(C(=O)c3cc4c(-c5cccc(C(=O)O)c5)nccc4[nH]3)CC1)C2` [Example 35, 3-{2-[(1-isopropyl-7-oxo-1,4,6,7-tetrahydro-1′H-spiro[indazole-5,4′-piperidin]-1′-yl)carbonyl]-1H-pyrrolo[3,2-c]pyridin-4-yl}benzoic acid], the IC50 in assay [1] (setting [3]) came to 32.6 nM; in assay [2] it was 12.5 nM.
For `CC(C)n1ncc2c1C(=O)CC1(CCN(C(=O)c3ccc(-c4ccc(C(=O)O)cc4)nc3NCC(F)(F)F)CC1)C2` [Example 42, 4-{5-[(1-isopropyl-7-oxo-1,4,6,7-tetrahydro-1′H-spiro[indazole-5,4′-piperidin]-1′-yl)carbonyl]-6-[(2,2,2-trifluoroethyl)amino]pyridin-2-yl}benzoic acid], in that order: 39.9 nM and 30.4 nM.
The like results for `CC(C)n1ncc2c1C(=O)CC1(CCN(C(=O)c3cc(-c4ccc(C(=O)O)cc4)c4cn[nH]c4c3)CC1)C2` [Example 26, 4-{6-[(1-isopropyl-7-oxo-1,4,6,7-tetrahydro-1′H-spiro[indazole-5,4′-piperidin]-1′-yl)carbonyl]-1H-indazol-4-yl}benzoic acid] were, in that order, 20.4 nM and 7.49 nM.
For `COc1cc(C(=O)N2CCC3(CC2)CC(=O)c2c(cnn2C(C)(C)C)C3)cc(-c2ccc(C(=O)O)cc2)n1` [Example 10, 4-{4-[(1-tert-butyl-7-oxo-1,4,6,7-tetrahydro-1′H-spiro[indazole-5,4′-piperidin]-1′-yl)carbonyl]-6-methoxypyridin-2-yl}benzoic acid], in that order: 30.1 nM and 35.5 nM.
